This note sets out measurements from ChEMBL document CHEMBL5029166, “Development of BET inhibitors as potential treatments for cancer: A new carboline chemotype” (Bioorg Med Chem Lett, 2021).

One may read the half-life as how long it takes for the measured level to halve. The term AUC denotes the area under the concentration-time curve, a measure of exposure. Usually IC50 stands for the concentration that gives 50% inhibition. For orientation: solubility means how much of the substance goes into solution per volume.

≈ marks a conversion by molar mass, not a printed value.

Series [1] is described as follows: Metabolic stability in mouse liver microsomes assessed as half life measured upto 120 mins. The format is ADME, Microsome. A general note: Microsomes from liver hold many membrane-bound enzymes, among them those of drug oxidation.
Series [2] in a line: Permeability of the compound by PAMPA. The series is classed as ADME. The following applies: read-out: permeability. In general terms: PAMPA measures passive passage across an artificial lipid membrane.
The nature of series [3]: Anticancer activity against human TNBC cancer tissue xenografted PDTX po dosed mouse model assessed as growth inhibition treated 5-day on/2-day off regimen for 2 weeks after 27 days of tumor implantation. The format is functional. The settings on record: Breast carcinoma cell, 336 h, read-out: MED.
A short description of series [4]: AUC in mouse at 3 mg/kg, po measured after 24 hrs. The series is classed as ADME, organism-based. Details: route oral, dose 3 mg/kg, time 24 hrs. The settings on record: in vivo.
Series [5] concerns the target Bromodomain-containing protein 4 (Homo sapiens, UniProt O60885). Description: Inhibition of BRD4 (unknown origin).
The nature of series [6]: Antiproliferative activity against human JJN-3R cells assessed as reduction in cell viability. The format is functional, cell-based.
Series [7] is described as follows: Anticancer activity against human TNBC cancer tissue xenografted PDTX mouse model assessed as tumor growth inhibition at 4 mg/kg, po treated 5-day on/2-day off regimen for 2 weeks after 27 days of tumor implantation. The series is classed as functional. The settings on record: Breast carcinoma cell, 336 h, read-out: TGI.
Series [8] is described as follows: Metabolic stability in monkey liver microsomes assessed as half life measured upto 120 mins. The format is ADME, Microsome. The settings on record: macaca.
Series [9] is described as follows: Metabolic stability in human liver microsomes assessed as half life measured upto 120 mins. The format is ADME, Microsome.
Series [10] in a line: Metabolic stability in dog liver microsomes assessed as half life measured upto 120 mins. The format is ADME, Canis lupus familiaris, Microsome.
The nature of series [11]: Metabolic stability in rat liver microsomes assessed as half life measured upto 120 mins. The series is classed as ADME, Microsome.
The nature of series [12]: Metabolic stability in rat liver microsomes assessed as compound remaining. The series is classed as ADME, Microsome.
A short description of series [13]: Metabolic stability in mouse liver microsomes assessed as compound remaining. The format is ADME, Microsome.
Series [14] can be described thus: Metabolic stability in human liver microsomes assessed as compound remaining. The format is ADME, Microsome.
Series [15] is described as follows: Solubility of the compound in pH 6.5 phosphate buffer. The series is classed as physicochemical.

`[2H]C([2H])([2H])c1nnn(C)c1-c1cc2c(cc1F)c1ncc(C(C)(C)O)cc1n2[C@H](c1ncccc1F)C1CCOCC1`: the half-life in [1] was found to be 32 min; in series [8] it was 21 min; in series [9], 95 min; in series [10] it was 22 min; in series [11], 87 min. In [2], the Papp is 55 ×10⁻⁶ cm/s. Further, the minimal effective dose in [3] was determined as 4 mg/kg. In addition, the AUC at 24 h in [4] turned out to be 11.1 µM·h. Further, the IC50 in [5] turned out to be 0.6 nM; in series [6], 5.3 nM. In addition, the inhibition in vivo at 4 mg/kg in series [7] was 76%.
Take `Cc1sc2c(c1C)C(c1ccc(Cl)cc1)=N[C@@H](CC(=O)OC(C)(C)C)c1nnc(C)n1-2`: the AUC at 24 h in series [4] turned out to be 7.4 µM·h.
On to `Cc1nnn(C)c1-c1cc(F)c2c3ncc(C(C)(C)O)cc3n([C@H](c3ccccc3)C3CCOCC3)c2c1`, for which the half-life worked out at 26 min in series [1]; 5 min in series [8]; 9 min in series [9]; 29 min in series [10]; 10 min in series [11]. Also, the values for the IC50 in [5] and in series [6] were 0.7 nM and 51 nM, respectively.
In the case of `Cc1nnn(C)c1-c1cnc2c3ccc(C(C)(C)O)cc3n([C@H](c3ccccc3)C3CCOCC3)c2c1` [EZOBRESIB], the half-life worked out at 23 min in series [1]; 11 min in [8]; 36 min in series [9]; 20 min in [10]; 40 min in series [11]. Also, the IC50 in series [5] worked out at 0.8 nM; in series [6], 3.6 nM.
As for `Cc1nnn(C)c1-c1ccc2c3ncc(C(C)(C)O)cc3n([C@H](c3ccccc3)C3CCOCC3)c2c1F`, the results for the Stability in series [12], in series [13] and in series [14] were 3%, 72% and 7%, respectively. The values for the IC50 in series [5] and in series [6] were 4 nM and 4.5 nM, respectively.
As to `[2H]C([2H])([2H])c1nnn(C)c1-c1cc2c(cn1)c1ncc(C(C)(C)O)cc1n2[C@H](c1ccccc1)C1CCOCC1`, the half-life came to 120 min in series [1]; 92 min in series [8]; 120 min in [9]; 120 min in [10]; 46 min in series [11]. The half-maximal inhibitory concentration (IC50) in series [6] is 22 nM.
`Cc1nnn(C)c1-c1ccc2c3ncc(C(C)(C)O)cc3n([C@H](c3ccccc3)C3CCOCC3)c2c1`: the half-life worked out at 11 min in series [1]; 4 min in [8]; 7 min in series [9]; 15 min in [10]; 3 min in [11]. In addition, the results for the IC50 in [5] and in series [6] were 0.6 nM and 1.8 nM, respectively.
As to `[2H]C([2H])([2H])c1nnn(C)c1-c1cc2c(cc1Cl)c1ncc(C(C)(C)O)cc1n2[C@H](c1ccccc1)C1CCOCC1`, in series [6], the IC50 was found to be 260 nM.
As to `[2H]C([2H])([2H])c1nnn(C)c1-c1cc2c(cc1F)c1ncc(C(C)(C)O)cc1n2[C@H](c1cc(C)on1)C1CCOCC1`, the half-life in series [1] is 31 min; in [8], 12 min; in series [9], 61 min; in series [10], 53 min; in [11], 1 min. Also, the Papp in series [2] is 30 ×10⁻⁶ cm/s. The IC50 in series [5] came to 0.6 nM; in [6], 12 nM.
As to `[2H]C([2H])([2H])c1nnn(C)c1-c1cc2c(cc1F)c1ncc(C(C)(C)O)cc1n2[C@H](c1ccccc1)C1CCOCC1`, the half-life in [1] was 46 min; in series [8], 14 min; in [9], 54 min; in series [10] it was 46 min; in [11], 9 min. For the same compound, the Papp in series [2] came out at 84 ×10⁻⁶ cm/s. Moreover, the AUC at 24 h in series [4] was determined as 10 µM·h. Also, the half-maximal inhibitory concentration (IC50) came to 0.4 nM in series [5] and 7.6 nM in series [6]. This compound registered a solubility in series [15] of 13 µg/mL (≈ 25.2 µM).
For `[2H]C([2H])([2H])c1nnn(C)c1-c1cc2c(cc1F)c1ncc(C(C)(C)O)cc1n2[C@@H](CCC)c1ncccc1F`, the half-life worked out at 53 min in series [1]; 36 min in [8]; 74 min in series [9]; 14 min in series [10]; 37 min in series [11]. Moreover, the IC50 in series [5] was determined as 0.5 nM; in series [6], 2.4 nM.
For the compound `Cc1nnn(C)c1-c1cc2c(cc1F)c1ncc(C(C)(C)O)cc1n2[C@H](c1ccccc1)C1CCOCC1`, the half-life in series [1] amounted to 21 min; in series [8], 9 min; in series [9] it was 25 min; in [10] it was 22 min; in series [11] it was 7 min. Also, the IC50 is 1.3 nM in series [5] and 6.2 nM in [6].
